Values after ≈ are worked out from the molar mass of the structure shown. Where only a bound is given, the exact number is not on record here.

Here are results for 6 molecules from DBAASP.

Holding throughout (assay): ≥ marks a high value that may be exact or a test limit, other limits are often not marked, values filed in µg/mL are converted to µM
The subject of test [1] is Candida tropicalis ATCC 20240.
For test [2], the system named is Candida krusei ATCC 6258.
In test [3] the test system is Candida parapsilosis ATCC 20224.
Test [4] relates to Candida albicans ATCC 2048.
For test [5], the system named is Candida glabrata ATCC 90525.
Test [6] concerns Listeria monocytogenes ATCC 7611.
The subject of test [7] is Klebsiella aerogenes ATCC 13048.
Test [8] has as its system Staphylococcus aureus ATCC 29213.
Test [9] relates to Klebsiella pneumoniae ATCC 700603.
The subject of test [10] is Lacticaseibacillus casei HZ1.
The subject of test [11] is Saccharomyces cerevisiae.
Test [12] concerns Escherichia coli ATCC 35218.
Test [13] concerns Enterococcus faecalis ATCC 29212.
Test [14] relates to Pseudomonas aeruginosa ATCC 27853.
Test [15] relates to Staphylococcus aureus DAR 5829.
In test [16] the test system is Enterococcus faecium BM4147.
Test [17] has as its system Staphylococcus epidermidis BM3302.
Test [18] deals with Kocuria rhizophila ATCC 9341.
Test [19] concerns Escherichia coli ML-35p.
The subject of test [20] is Bacillus subtilis subsp. subtilis CIP 52.65.
Test [21] concerns Staphylococcus aureus ATCC 6538.
Test [22] relates to Escherichia coli ATCC 8739.
For test [23], the system named is Staphylococcus aureus ST1065.
The subject of test [24] is Escherichia coli K-12.
In test [25] the test system is Candida albicans KCTC 7270.
The test system of test [26] is Pseudomonas aeruginosa 4007.
The subject of test [27] is Pseudomonas aeruginosa 4891.
For test [28], the system named is Escherichia coli CCARM 1238.
Test [29] concerns Staphylococcus aureus CCARM 3518.
In test [30] the test system is Staphylococcus aureus CCARM 3090.
Test [31] has as its system Escherichia coli CCARM 1229.
The subject of test [32] is Trichosporon beigelii KCTC 7707.
Test [33] concerns Escherichia coli ML-35.
Test [34] deals with Staphylococcus epidermidis ATCC 12228.
Test [35] relates to Escherichia coli D21.
Test [36] concerns Bacillus megaterium Bm11.
For test [37], the system named is Salmonella enterica subsp. enterica serovar Typhimurium ATCC 14028.
Test [38] deals with Serratia marcescens ATCC 8100.
Test [39] relates to Staphylococcus aureus NCTC 12981.
Test [40] concerns Escherichia coli ATCC 25922.
Test [41] has as its system Escherichia coli NCTC 10418.
Test [42] has as its system Staphylococcus aureus ATCC 25923.

The term MIC denotes the lowest concentration found to suppress growth. With `C[C@H](NC(=O)CN)C(=O)N[C@@H](CCCCN)C(=O)N[C@@H](CCC(=O)O)C(=O)N[C@@H](CCCN=C(N)N)C(=O)N[C@@H](C)C(=O)N[C@@H](Cc1cnc[nH]1)C(=O)N[C@@H](CCC(N)=O)C(=O)O` [GAKERAHQ], the MIC was no less than 290 µM in [1]; no less than 240 µM in test [2]; no less than 300 µM in test [3]; no less than 240 µM in [4]; no less than 300 µM in test [5].
With `CC(C)C[C@H](NC(=O)[C@H](Cc1ccccc1)NC(=O)[C@H](CCCCN)NC(=O)[C@H](Cc1ccccc1)NC(=O)[C@H](Cc1ccccc1)NC(=O)[C@H](Cc1cnc[nH]1)NC(=O)[C@@H](NC(=O)[C@H](Cc1c[nH]c2ccccc12)NC(=O)[C@@H](NC(=O)[C@H](CO)NC(=O)[C@@H]1CCCN1C(=O)[C@H](CC(C)C)NC(=O)[C@H](Cc1ccccc1)NC(=O)[C@H](CC(C)C)NC(=O)[C@H](CCCCN)NC(=O)[C@H](CC(C)C)NC(=O)[C@@H]1CCCN1C(=O)[C@H](CC(N)=O)NC(=O)CN)[C@@H](C)O)C(C)C)C(=O)N[C@@H](CCCN=C(N)N)C(=O)O` [GNPLKLFLPSTWVHFFKFLR], the MIC in test [6] is 4 µM (≈ 9.79 µg/mL); in test [7], no less than 64 µM; in [8], 4 µM (≈ 9.79 µg/mL); in test [9], greater than 256 µM; in test [10], no less than 32 µM; in test [11], no less than 256 µM.
Turning to `CC[C@H](C)[C@H](NC(=O)CNC(=O)[C@H](Cc1c[nH]c2ccccc12)NC(=O)[C@@H](NC(=O)CN)C(C)C)C(=O)N[C@@H](C)C(=O)N[C@@H](CCCCN)C(=O)N[C@H](C(=O)N[C@@H](C)C(=O)NCC(=O)N[C@@H](CCCCN)C(=O)N[C@H](C(=O)N[C@@H](CC(C)C)C(=O)NCC(=O)N[C@@H](CC(N)=O)C(=O)N[C@H](C(=O)N[C@@H](CC(C)C)C(=O)N1CCC[C@H]1C(=O)N[C@@H](Cc1cnc[nH]1)C(=O)N[C@H](C(=O)N[C@@H](Cc1ccccc1)C(=O)N[C@@H](CO)C(=O)N[C@@H](CO)C(=O)N[C@@H](CC(N)=O)C(=O)N[C@@H](CCC(N)=O)C(=O)N[C@@H](CO)C(N)=O)C(C)C)[C@@H](C)CC)C(C)C)[C@@H](C)CC` [GVWGIAKIAGKVLGNILPHVFSSNQS], the MIC in test [12] is no less than 100 µM; in [13], 50 µM (≈ 135 µg/mL); in test [14], greater than 100 µM; in test [15] it was 25 µM (≈ 67.3 µg/mL); in test [16] it was 25 µM (≈ 67.3 µg/mL); in test [8], 3.12 µM (≈ 8.4 µg/mL). Also, the MIC in test [17] is 12.5 µM (≈ 33.7 µg/mL); in test [18], 3.12 µM (≈ 8.4 µg/mL); in test [19], no less than 100 µM; in test [20], 6.25 µM (≈ 16.8 µg/mL); in test [21] it was 6.25 µM (≈ 16.8 µg/mL); in test [22] it was 25 µM (≈ 67.3 µg/mL). In addition, the MIC was 12.5 µM (≈ 33.7 µg/mL) in [23] and no less than 100 µM in [24].
For `CC[C@H](C)[C@H](NC(=O)[C@H](CC(C)C)NC(=O)[C@H](CCCCN)NC(=O)[C@@H](NC(=O)[C@H](C)NC(=O)[C@H](CCC(=O)O)NC(=O)[C@H](Cc1cnc[nH]1)NC(=O)[C@@H](NC(=O)[C@H](CCCCN)NC(=O)[C@H](CCC(N)=O)NC(=O)[C@H](Cc1ccccc1)NC(=O)[C@@H](NC(=O)[C@H](CCCCN)NC(=O)[C@H](CCCCN)NC(=O)[C@H](CC(C)C)NC(=O)[C@H](C)NC(=O)[C@H](CC(N)=O)NC(=O)[C@@H](N)CC(C)C)C(C)C)[C@@H](C)CC)[C@@H](C)CC)C(N)=O` [LNALKKVFQKIHEAIKLI], the MIC in test [25] came to 16 µM (≈ 33.7 µg/mL); in test [26] it was 2 µM (≈ 4.21 µg/mL); in test [27], 4 µM (≈ 8.42 µg/mL); in [28], 2 µM (≈ 4.21 µg/mL); in test [29], 4 µM (≈ 8.42 µg/mL); in [30], 4 µM (≈ 8.42 µg/mL). Also, the minimal inhibitory concentration (MIC) amounted to 2 µM (≈ 4.21 µg/mL) in [31] and 8 µM (≈ 16.8 µg/mL) in test [32].
On to `CC(C)C[C@H](NC(=O)[C@H](Cc1ccc(O)cc1)NC(=O)[C@@H]1CCCN1C(=O)[C@@H]1CCCN1C(=O)[C@H](CCCN=C(N)N)NC(=O)[C@@H]1CCCN1C(=O)[C@H](CCCN=C(N)N)NC(=O)[C@H](CCCN=C(N)N)NC(=O)[C@@H](N)CCCN=C(N)N)C(=O)N[C@@H](CCCN=C(N)N)C(=O)N1CCC[C@H]1C(=O)N[C@@H](CCCN=C(N)N)C(=O)N1CCC[C@H]1C(=O)N1CCC[C@H]1C(=O)N1CCC[C@H]1C(=O)O` [RRRPRPPYLRPRPPP], for which the MIC in [33] was no less than 32 µM; in test [34] it was greater than 64 µM; in [35] it was 16 µM (≈ 30.6 µg/mL); in test [36] it was no less than 32 µM; in [37] it was 32 µM (≈ 61.2 µg/mL); in test [38] it was no less than 32 µM.
On to `NC(=O)[C@H](Cc1c[nH]c2ccccc12)NC(=O)[C@H](CCCN=C(N)N)NC(=O)[C@@H](N)Cc1c[nH]c2ccccc12` [WRW], for which the MIC in test [39] is no less than 234 µM; in test [40], greater than 366 µM; in [41] it was no less than 234 µM; in test [42], 183 µM (≈ 99.8 µg/mL).
